Laboratory results as given in EP4800012A1, “COMPOUND ACTING AS PARP7 INHIBITOR” (Dovetree Medicines Unus, Inc., priority 2023, dated 2025).

Tests used:
PARP7 [1] = target: T1, PARP7 (Homo sapiens, UniProt Q7Z3E1); experiment: Inhibition of the compound on PARP7 protein activity (ADP-ribosylation, chemiluminescence); assay type: biochemical; details: Histone H1 coated plate, Biotin-Labeled NAD+, 2 h at room temperature, chemiluminescence; read-out: PARP7 activity inhibition IC50
T1 construct: purchased BPS 80527
T1 sequence (Q7Z3E1 1-657): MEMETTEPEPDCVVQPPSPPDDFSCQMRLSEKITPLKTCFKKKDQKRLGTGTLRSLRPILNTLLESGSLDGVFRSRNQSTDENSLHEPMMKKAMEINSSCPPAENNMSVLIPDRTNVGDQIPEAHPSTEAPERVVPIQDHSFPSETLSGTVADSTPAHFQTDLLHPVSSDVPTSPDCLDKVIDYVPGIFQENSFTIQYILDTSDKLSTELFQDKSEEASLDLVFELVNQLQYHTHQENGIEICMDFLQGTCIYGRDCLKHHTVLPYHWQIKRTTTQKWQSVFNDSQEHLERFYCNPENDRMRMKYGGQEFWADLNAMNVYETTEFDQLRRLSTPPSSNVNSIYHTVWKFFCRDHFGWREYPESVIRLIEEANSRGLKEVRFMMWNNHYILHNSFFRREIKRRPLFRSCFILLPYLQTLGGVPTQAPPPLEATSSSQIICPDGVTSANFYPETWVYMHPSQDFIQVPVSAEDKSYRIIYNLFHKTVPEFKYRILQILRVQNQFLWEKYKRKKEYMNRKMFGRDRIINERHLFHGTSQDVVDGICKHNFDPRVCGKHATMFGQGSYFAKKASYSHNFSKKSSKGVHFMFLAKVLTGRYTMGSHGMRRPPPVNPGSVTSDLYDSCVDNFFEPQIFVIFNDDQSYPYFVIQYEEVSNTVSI

PARP7 [2] = target: T1, PARP7; experiment: PARP7 TR-FRET binding inhibition (displacement of probe RBN011147); details: TR-FRET, Biotin-labeled probe RBN011147; read-out: PARP7 binding inhibition IC50
Protocol: The ability of the compound to substitute the probe RBN011147 (Wigle et al., 2020, Cell Chemical Biology 27, 877-887) was tested by a TR-FRET method, and IC50 was calculated to evaluate the binding ability of the compound to PARP7. […]

NCI-H1373 cells = experiment: Inhibition on NCI-H1373 cell proliferation (Cell-Titer-Glo); assay type: cell-based; details: Homo sapiens, 144 h; NCI-H1373 cells, incubation for 6 days, Cell-Titer-Glo; read-out: NCI-H1373 cell proliferation inhibition IC50
Protocol: The inhibitory effect of the compound on PARP7 was evaluated by testing the inhibitory effect of the compound on NCI-H1373 cell proliferation.
NCI-H1373 cells (ATCC, CRL-5866) were cultured in a complete medium, namely, a RPMI-1640 medium (Gibco, 22400089) containing 10% fetal bovine serum (Corning, 35-081-CV).
Negative control wells and positive control wells were added with 50 nL DMSO (Sigma, D2650), respectively.
In "Day 0" detection plate, NCI-H1373 cells were seeded at a density of 600 cells/well (50 µL) in a complete medium into the Day 0 test wells of a 384-well detection plate (Grenier, 781091). Then, 25 µL of Cell-Titer-Glo reagent (Promega, G7573) was added to each well, followed by centrifugation at 1000 rpm at room temperature for 1 minute and incubation at room temperature under shaded conditions for 10 min. Chemiluminescence signals were collected using an Envision (Perkin Elmer, EnVision 2105) to obtain the average value of the Day 0 test values.
In "compound detection plate", NCI-H1373 cells were seeded at a density of 600 cells/well (50 µL) in a complete medium into the negative control wells and the compound detection wells of a 384-well detection plate (Grenier, 781091), and 50 µL of cell culture medium was added to the positive control wells, followed by centrifugation at 1000 rpm at room temperature for 1 minute and placing in a cell incubator at 37°C, 5% CO2 for incubation for 6 days. […] Chemiluminescence signals were collected using an Envision (Perkin Elmer, EnVision 2105). The test values for each compound well, negative control well, and positive control well were obtained.
The proliferation inhibition ratio formula is as follows: [formula]
The average value of the negative control = the average value of the Day 6 test values of each negative control well minus the average value of the Day 0 test values
The average value of the positive control = the average value of the Day 6 test values of each positive control well
The average value of the compound test = (the Day 6 test value of compound test well 1 + the Day 6 test value of compound test well 2)/2 - the average value of the Day 0 test values

Compound	IC50 (PARP7 [1])	IC50 (PARP7 [2])	IC50 (NCI-H1373 cells)
O=C(CCc1c[nH]c(=O)c2ccccc12)Nc1ccc(-c2ncc(C(F)(F)F)cn2)cc1 [Example 12]	3 to 10 nM	10 to 30 nM	
Cc1cc(NC(C)CCCN(C)C(=O)c2ccc(-c3ncc(C(F)(F)F)cn3)cc2O)c(C#N)c(=O)[nH]1 (stereo not drawn) [Example 33]	30 to 100 nM	> 100 nM	
CC(CCCN(C)C(=O)c1cnc(N2CCOCC2)cn1)Nc1cn[nH]c(=O)c1C(F)(F)F (stereo not drawn) [Example 36]	30 to 100 nM	> 100 nM	
CC(CCCN(C)C(=O)c1cnc(N2CCN(C3CC3)CC2)cn1)Nc1cn[nH]c(=O)c1C(F)(F)F (stereo not drawn) [Example 37]	> 100 nM	> 100 nM	
Cc1cc(NCCCC(C)NC(=O)c2cnc(-c3ncc(C(F)(F)F)cn3)cn2)c(C#N)c(=O)[nH]1 (stereo not drawn) [Example 49]	30 to 100 nM	> 100 nM	
CC(CCCNC(=O)c1ccc(-c2ncc(C(F)(F)F)s2)cc1F)Nc1cc[nH]c(=O)c1C#N (stereo not drawn) [Example 71]	> 100 nM	> 100 nM	
O=C(NCC1CC(Nc2cn[nH]c(=O)c2C(F)(F)F)C1)c1ccc(-c2ncc(C(F)(F)F)s2)cc1 (stereo not drawn) [Example 129]		> 100 nM	
O=C(NCCC1CC(OC2CC2)CN1c1cn[nH]c(=O)c1C(F)(F)F)c1ccc(-c2ncc(C(F)(F)F)s2)cn1 (stereo not drawn) [Example 138]		> 100 nM	
O=C(c1ccc(-c2ncc(C(F)(F)F)s2)cc1)N1CC2(CC(Nc3cn[nH]c(=O)c3C(F)(F)F)C2)C1 [Example 219]		> 100 nM	
O=C(NCCC[C@@H](Nc1cn[nH]c(=O)c1C(F)(F)F)C(=O)N1CCC2(CC2)C1)c1ccc(-c2ncc(C(F)(F)F)s2)cc1 [Example 220]		< 10 nM	< 300 nM
CC1(NC(=O)[C@@H](CCCNC(=O)c2ccc(-c3ncc(C(F)(F)F)s3)cc2)Nc2cn[nH]c(=O)c2C(F)(F)F)CCOCC1 [Example 227]		< 10 nM	< 300 nM
O=C(NCCC[C@@H](Nc1cn[nH]c(=O)c1C(F)(F)F)C(=O)Nc1cccnc1)c1ccc(-c2ncc(C(F)(F)F)s2)cc1 [Example 234]		< 10 nM	300 to 1000 nM
NC(=O)c1cccc2cn(CCCNC(=O)c3ncc(-c4ncc(C(F)(F)F)s4)cc3F)nc12 [Example 249]		30 to 100 nM	> 3000 nM
CC(COCc1cc(-c2cnc(C(F)(F)F)nc2)sn1)Nc1cn[nH]c(=O)c1C(F)(F)F (stereo not drawn) [Example 251]		> 100 nM	> 3000 nM
NC(=O)c1cccc2cn(CCCn3cnc4cc(-c5ncc(C(F)(F)F)cn5)c(F)cc4c3=O)nc12 [Example 252]		> 100 nM	> 3000 nM
NC(=O)c1cccc2cn(CCCn3ccc4cc(-c5ncc(C(F)(F)F)cn5)c(F)cc4c3=O)nc12 [Example 254]		> 100 nM	
N#C[C@@H]1CCCN(C(=O)[C@@H](CCCNC(=O)c2ccc(-c3ncc(C(F)(F)F)s3)cc2)Nc2cn[nH]c(=O)c2C(F)(F)F)C1 [Example 260]		10 to 30 nM	1000 to 3000 nM

The remaining lines, values ahead:

IC50 (PARP7 [1])	IC50 (PARP7 [2])	IC50 (NCI-H1373 cells)	Compound
< 3 nM	< 10 nM	1000 to 3000 nM	CC(CCCNC(=O)c1ccc(-c2ncc(C(F)(F)F)cn2)cc1O)Nc1cn[nH]c(=O)c1C(F)(F)F (stereo not drawn) [Example 1]
< 3 nM	< 10 nM	300 to 1000 nM	CC(CCCNC(=O)c1ccc(-c2ncc(C(F)(F)F)cn2)cc1F)Nc1cn[nH]c(=O)c1C(F)(F)F (stereo not drawn) [Example 2]
< 3 nM	< 10 nM	300 to 1000 nM	CC(CCCNC(=O)c1ccc(-c2ncc(C(F)(F)F)cn2)cc1)Nc1cn[nH]c(=O)c1C(F)(F)F (stereo not drawn) [Example 3]
< 3 nM	10 to 30 nM	> 3000 nM	CC(CCCNC(=O)c1cccc2c1CCN2c1ncc(C(F)(F)F)cn1)Nc1cn[nH]c(=O)c1C(F)(F)F (stereo not drawn) [Example 5]
	30 to 100 nM	> 3000 nM	CC(CCNC(=O)c1n[nH]c2cc(-c3ncc(C(F)(F)F)cn3)ccc12)Nc1cn[nH]c(=O)c1C(F)(F)F (stereo not drawn) [Example 7]
	10 to 30 nM	> 3000 nM	CC(CCNC(=O)c1n[nH]c2c1CCN(c1ncc(C(F)(F)F)cn1)C2)Nc1cn[nH]c(=O)c1C(F)(F)F (stereo not drawn) [Example 8]
	10 to 30 nM	> 3000 nM	Cc1cnc(-c2cnc(C(=O)NCCCC(C)Nc3cn[nH]c(=O)c3C(F)(F)F)cn2)s1 (stereo not drawn) [Example 24]
	< 10 nM	< 300 nM	CC(CCCNC(=O)c1ccc(-c2cc(C(F)(F)F)sn2)cc1)Nc1cn[nH]c(=O)c1C(F)(F)F (stereo not drawn) [Example 83]
	> 100 nM		CC(CC1CN(C(=O)c2ccc(-n3cc(C(F)(F)F)cn3)cc2)C1)Nc1cn[nH]c(=O)c1C(F)(F)F (stereo not drawn) [Example 218]
	< 10 nM	< 300 nM	C[C@@H]1CCN(C(=O)[C@@H](CCCNC(=O)c2ccc(-c3ncc(C(F)(F)F)s3)cc2)Nc2cn[nH]c(=O)c2C(F)(F)F)C1 [Example 225]
	> 100 nM		O=C(NCC1CC(Nc2cn[nH]c(=O)c2C(F)(F)F)C1)c1ccc(-c2ncc(C(F)(F)F)cn2)cc1 (stereo not drawn) [Example 226]
	10 to 30 nM	300 to 1000 nM	O=C(NCCC[C@@H](Nc1cn[nH]c(=O)c1C(F)(F)F)C(=O)N1CCSCC1)c1ccc(-c2ncc(C(F)(F)F)s2)cc1 [Example 236]
	10 to 30 nM	> 3000 nM	C[C@H]1CCN1C(=O)[C@@H](CCCNC(=O)c1ccc(-c2ncc(C(F)(F)F)s2)cc1)Nc1cn[nH]c(=O)c1C(F)(F)F [Example 240]
	30 to 100 nM	> 3000 nM	Cc1c(-c2cnc(C(F)(F)F)s2)ncn(CCCC(C)Nc2cn[nH]c(=O)c2C(F)(F)F)c1=O (stereo not drawn) [Example 248]
	10 to 30 nM	> 3000 nM	CC(CCCn1ccc2cc(-c3ncc(C(F)(F)F)cn3)cnc2c1=O)Nc1cn[nH]c(=O)c1C(F)(F)F (stereo not drawn) [Example 250]
	< 10 nM	1000 to 3000 nM	CC(CCCn1ccc2cc(-c3ncc(C(F)(F)F)s3)cnc2c1=O)Nc1cn[nH]c(=O)c1C(F)(F)F (stereo not drawn) [Example 253]
	< 10 nM	300 to 1000 nM	COC1CCN(C(=O)[C@@H](CCCNC(=O)c2ccc(-c3ncc(C(F)(F)F)s3)cc2)Nc2cn[nH]c(=O)c2C(F)(F)F)CC1 [Example 255]
	< 10 nM	300 to 1000 nM	COC1CN(C(=O)[C@@H](CCCNC(=O)c2ccc(-c3ncc(C(F)(F)F)s3)cc2)Nc2cn[nH]c(=O)c2C(F)(F)F)C1 [Example 256]
	< 10 nM	< 300 nM	Cc1cccc(NC(=O)[C@@H](CCCNC(=O)c2ccc(-c3ncc(C(F)(F)F)s3)cc2)Nc2cn[nH]c(=O)c2C(F)(F)F)n1 [Example 257]
	< 10 nM	< 300 nM	CC(C)NC(=O)[C@@H](CCCNC(=O)c1ccc(-c2ncc(C(F)(F)F)s2)cc1)Nc1cn[nH]c(=O)c1C(F)(F)F [Example 258]
	< 10 nM	< 300 nM	CCN(C)C(=O)[C@@H](CCCNC(=O)c1ccc(-c2ncc(C(F)(F)F)s2)cc1)Nc1cn[nH]c(=O)c1C(F)(F)F [Example 259]
	30 to 100 nM	300 to 1000 nM	N#CC1CCN(C(=O)C(CCCNC(=O)c2ccc(-c3ncc(C(F)(F)F)s3)cc2)Nc2cn[nH]c(=O)c2C(F)(F)F)C1 (stereo not drawn) [Example 261]
	10 to 30 nM	< 300 nM	CC[C@@H]1CN(C(=O)[C@@H](CCCNC(=O)c2ccc(-c3ncc(C(F)(F)F)s3)cc2)Nc2cn[nH]c(=O)c2C(F)(F)F)CCO1 [Example 262]
